The results in this text go back to publication PMC10580953, “In vitro and intracellular activities of novel thiopeptide derivatives against macrolide-susceptible and macrolide-resistant Mycobacterium avium complex” (Microbiology Spectrum, 2023).

Molecules are shown by their SMILES. Converted amounts (≈) assume the structure as drawn.

One data set deals with M. avium ATCC 700898. The settings on record: synergism FICI ≤0.5, additive 0.5 < FICI ≤ 1, indifferent 1 < FICI ≤ 4, antagonistic FICI >4. As to the method:
(§1) To evaluate the efficacy of the combination of agent A and agent B, a fractional inhibitory concentration (FIC) index was calculated as follows: FICI = (FIC of agent A) + (FIC of agent B) = (MIC of agent A in combination/MIC of agent A alone) + (MIC of agent B in combination/MIC of agent B alone). Synergism is defined as FICI ≤0.5, additive as 0.5 < FICI ≤ 1, indifferent as 1 < FICI ≤ 4, and antagonistic as FICI >4. The cultured bacteria were diluted to a 0.005 OD600 in 7H9 broth containing 5% OADC, and the antimicrobial agents were prepared by serial dilutions to a final concentration of 0.03–4 μg/mL. For the evaluation of inhibitory concentrations, the plates were incubated at 37°C for 5–7 d. Then, MIC values were assessed by REMA, and the FICI was calculated.

Data set [1] concerns M. intracellulare ATCC 13950. The settings on record: synergism FICI ≤0.5, additive 0.5 < FICI ≤ 1, indifferent 1 < FICI ≤ 4, antagonistic FICI >4. On the procedure:
as §1

Another data set relates to M. avium. Description: MIC by resazurin microtiter assay (REMA), M. avium strains. Background: Resazurin is reduced to fluorescent resorufin, in cell work by metabolically active cells.
Data set [2] has as its system macrolide-resistant M. intracellulare. Description: MIC by REMA, macrolide-resistant M. intracellulare strains. The settings on record: Mycobacterium intracellulare.
From the text: (§2) Reference strains were purchased from the American Type Culture Collection (ATCC; Manassas, VA, USA). All clinical MAC isolates, including macrolide-susceptible and macrolide-resistant strains, were kindly provided by Samsung Medical Center (SMC; Seoul, South Korea) and Asan Medical Center (AMC; Seoul, South Korea). All strains were cultivated in Middlebrook 7H9 liquid broth (Difco Laboratories, Detroit, MI) supplemented with 10% oleic acid-albumin-dextrose-catalase (OADC) or plated on Middlebrook 7H10 agar (Difco Laboratories) with 10% OADC enrichment at 37°C.
(§3) The MICs of all the reagents were determined using the REMA method based on guidelines by the Clinical and Laboratory Standards Institute ([57]). […] The cultures were diluted to an OD600 = 0.001 in 7H9 broth with 5% OADC. […] Two controls (broth only and bacteria only) were incubated to check for other contamination (broth only) and the growth of tested bacteria (bacteria only).
(§4) PCR amplification and sequencing for CLR were based on 23S rRNA. The primers and PCR conditions were as reported previously ([59]). PCR was carried out in a final volume of 20 µL and contained EzPCR Basic 5 × premix (ELPIS, Daejeon, South Korea), 13 µL of sterile dH2O, 1 µL of each forward and reverse primer, and 1 µL of template DNA. The PCR products were run on 1% agarose gels and purified using a NEXprep Gel/PCR Purification Mini Kit (Geneslabs, Gyeonggi, South Korea) for DNA cleanup. Purified PCR products were sequenced by Sanger sequencing in Bionics (Seoul, South Korea) with their gene-specific forward and reverse primers. Sequences obtained from Bionics were subjected to BLAST searches to compare nucleotide sequences with reference strains.
Data set [3] has as its system macrolide-resistant M. avium. Description: MIC by REMA, macrolide-resistant M. avium strains. To be noted: Mycobacterium avium.
From the text: as §2, §3, §4
The subject of the next data set is M. intracellulare. Description: MIC by resazurin microtiter assay (REMA), M. intracellulare strains.
The next data set has as its system MAC in murine BMDMs. Description: Intracellular anti-MAC activity in infected BMDMs, summary statements for MAC. It is filed as cell-based, Mycobacterium avium complex. The settings on record: macrolide-resistant MAC, 10 µg/mL, 72 h (Fig. 5 and 6). As to the method:
BMDMs were obtained from 6-week-old female BALB/c mice. Bone marrow cells were differentiated into BMDMs using Dulbecco’s Modified Eagle Medium (Biowest) supplemented with 10% fetal bovine serum (Biowest) and 10% L929 cell supernatant as previously described ([58]).
BMDMs were seeded at 4 × 10^5 cells/mL in a 48-well plate and incubated overnight at 37°C. MAC strains were infected at a multiplicity of infection of 3 for 4 h and washed with DPBS twice. The cells were then cultured in the absence or presence of drugs in triplicate wells for 72 h. After incubation, the cells were lysed with 0.05% Triton X-100, and the cell lysates serially diluted with DPBS were spotted on 7H10 agar plates supplemented with OADC to count the number of viable bacteria. Colonies were enumerated after 7 d of incubation at 37°C, and the values are reported as the mean CFU ± standard deviation (SD) per mL. All experiments were repeated at least three times independently.

In the case of `COc1nc2ccc(Br)cc2cc1[C@@H](c1ccccc1)[C@@](O)(CCN(C)C)c1cccc2ccccc12` [bedaquiline, reference compound], the “drug-drug interaction with CLR” value (with M. avium ATCC 700898; in data set [1]) was “synergistic effects were not observed” each time.
For `CC[C@H]1OC(=O)[C@H](C)[C@@H](O[C@H]2C[C@@](C)(OC)[C@@H](O)[C@H](C)O2)[C@H](C)[C@@H](O[C@@H]2O[C@H](C)C[C@H](N(C)C)[C@H]2O)[C@](C)(OC)C[C@@H](C)C(=O)[C@H](C)[C@@H](O)[C@]1(C)O` [CLR, clarithromycin, reference compound], the MIC with M. avium (M. avium (SMC#7)) was 0.5 mg/L (≈ 0.668 µM); against M. avium (Mycobacterium avium) it was 0.5 mg/L (≈ 0.668 µM); with M. avium (Mycobacterium avium, ATCC700898) it was 0.5 mg/L (≈ 0.668 µM); against M. avium (Mycobacterium avium, M. avium (SMC#6)) it was 0.125 mg/L (≈ 0.167 µM); against M. avium (Mycobacterium avium, M. avium (SMC#1637)), 0.125 mg/L (≈ 0.167 µM); in data set [2] (M. intracellulare (AMC#24), 23S rRNA A2058/A2059 G/A), over 64 mg/L. The MIC in data set [2] (M. intracellulare (SMC#104), 23S rRNA A2058/A2059 G/A) is over 64 mg/L; in data set [2] (M. intracellulare (SMC#400), 23S rRNA A2058/A2059 C/A), over 64 mg/L; in data set [2] (M. intracellulare (SMC#414), 23S rRNA A2058/A2059 A/G), over 64 mg/L; in data set [2] (M. intracellulare (SMC#418), 23S rRNA A2058/A2059 G/A), over 64 mg/L; in data set [3] (M. avium (SMC#417), 23S rRNA A2058/A2059 C/A) it was over 64 mg/L; in data set [3] (M. avium (SMC#420), 23S rRNA A2058/A2059 C/A), over 64 mg/L. Besides, the MIC is over 64 mg/L in data set [3] (M. avium (SMC#422), 23S rRNA A2058/A2059 A/G); over 64 mg/L in data set [3] (M. avium (SMC#1213), 23S rRNA A2058/A2059 T/A); over 64 mg/L in data set [3] (M. avium (SMC#1216), 23S rRNA A2058/A2059 C/A); 0.125 mg/L (≈ 0.167 µM) against M. intracellulare (M. intracellulare (SMC#9)); 0.125 mg/L (≈ 0.167 µM) with M. intracellulare (M. intracellulare (SMC#699)); 0.125 mg/L (≈ 0.167 µM) in the data set with M. intracellulare (M. intracellulare (SMC#831)). Further, the minimum inhibitory concentration (MIC) with M. intracellulare (M. intracellulare (SMC#2087)) stood at 0.125 mg/L (≈ 0.167 µM); against M. intracellulare (Mycobacterium intracellulare), 0.125 mg/L (≈ 0.167 µM); with M. intracellulare (Mycobacterium intracellulare, ATCC13950, M. intracellulare (ATCC 13950), reference strain), 0.25 mg/L (≈ 0.334 µM); against M. intracellulare (Mycobacterium intracellulare, M. intracellulare (SMC#8)), 0.25 mg/L (≈ 0.334 µM); in the data set on M. intracellulare (Mycobacterium intracellulare, M. intracellulare (SMC#12)), 0.25 mg/L (≈ 0.334 µM). In addition, in the data set with MAC in murine BMDMs, the “intracellular activity in BMDMs infected with macrolide-resistant MAC clinical isolates” value is “resistance”.

As usually defined, the MIC is the lowest concentration found to suppress growth. Low readings indicate inhibition by little substance, high ones a need for much substance.
